Assay results taken from PubChem BioAssay AID1919013 (Molecular Pharmacology Branch, DTP, NCI, 2023).
pIC50: −log10 of the molar value.

Test system: LG0703-F498-PDC complex spheroid growth
Test: Anticancer human tumor LG0703-F498-PDC patient-derived lung adenocarcinoma cell line growth inhibition [AhR]
Conditions: for pIC50: curve of first compound; for viability, T/C: stronger effect = lower value
Summary of the method: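 Agents were dosed in half-log steps down from roughly clinical Cmax, or from 10 microM where Cmax was unknown, alone and with AhR antagonists. Read-out: percent test/control growth of tumor spheroids containing HUVEC and MSC stromal cells.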

[1] = second compound 0.1 µM, first compound 0.0316 µM
[2] = second compound 0.1 µM, first compound 0.1 µM
[3] = second compound 0.1 µM, first compound 0.316 µM
[4] = second compound 0.1 µM, first compound 1 µM
[5] = second compound 0.1 µM, first compound 3.16 µM
[6] = second compound 0.1 µM, first compound 10 µM
[7] = second compound 0.316 µM, first compound 0.0316 µM
[8] = second compound 0.316 µM, first compound 0.1 µM
[9] = second compound 0.316 µM, first compound 0.316 µM
[10] = second compound 0.316 µM, first compound 1 µM
[11] = second compound 0.316 µM, first compound 3.16 µM
[12] = second compound 0.316 µM, first compound 10 µM
[13] = second compound 1 µM, first compound 0.0316 µM
[14] = second compound 1 µM, first compound 0.1 µM
[15] = second compound 1 µM, first compound 0.316 µM
[16] = second compound 1 µM, first compound 1 µM
[17] = second compound 1 µM, first compound 3.16 µM
[18] = second compound 1 µM, first compound 10 µM
[19] = second compound 3.16 µM, first compound 0.0316 µM
[20] = second compound 3.16 µM, first compound 0.1 µM
[21] = second compound 3.16 µM, first compound 0.316 µM
[22] = second compound 3.16 µM, first compound 1 µM
[23] = second compound 3.16 µM, first compound 3.16 µM
[24] = second compound 3.16 µM, first compound 10 µM
[25] = second compound 10 µM, first compound 0.0316 µM
[26] = second compound 10 µM, first compound 0.1 µM
[27] = second compound 10 µM, first compound 0.316 µM
[28] = second compound 10 µM, first compound 1 µM
[29] = second compound 10 µM, first compound 3.16 µM
[30] = second compound 10 µM, first compound 10 µM
[31] = second compound 0.1 µM, first compound 0.00316 µM
[32] = second compound 0.1 µM, first compound 0.01 µM
[33] = second compound 0.316 µM, first compound 0.00316 µM
[34] = second compound 0.316 µM, first compound 0.01 µM
[35] = second compound 1 µM, first compound 0.00316 µM
[36] = second compound 1 µM, first compound 0.01 µM
[37] = second compound 3.16 µM, first compound 0.00316 µM
[38] = second compound 3.16 µM, first compound 0.01 µM
[39] = second compound 10 µM, first compound 0.00316 µM
[40] = second compound 10 µM, first compound 0.01 µM
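Also: luminescence taken as a proxy for viable cell amount.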
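For viability, T/C in this document: percent of DMSO vehicle control where 100% means growth equal to vehicle.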

Row | SMILES | pIC50 (second compound 0.1 µM) | pIC50 (second compound 0.316 µM) | pIC50 (second compound 1 µM) | pIC50 (second compound 3.16 µM) | pIC50 (second compound 10 µM) | viability, T/C [1] [%] | viability, T/C [2] [%] | viability, T/C [3] [%] | viability, T/C [4] [%] | viability, T/C [7] [%] | viability, T/C [8] [%] | viability, T/C [9] [%] | viability, T/C [10] [%] | viability, T/C [13] [%] | viability, T/C [14] [%] | viability, T/C [15] [%] | viability, T/C [19] [%] | viability, T/C [20] [%] | viability, T/C [25] [%] | viability, T/C [26] [%] | other results
1 | CC(C)c1c(-c2ccccc2)nc2c(C#N)c[nH]n2c1=O + CC(CO)NC(=O)c1cc(-c2ccc(Cl)cc2)nn(-c2cnn(C)c2)c1=O | < 5.00 | < 5.00 | < 5.00 | < 5.00 | < 5.00 | 94.2 | 96.5 | 87.5 | 86.1 | 88.2 | 95.5 | 100 | 78.9 | 82 | 88.7 | 83.8 | 70.3 | 96.7 | 73 | 76.5 | viability, T/C [5]: 87.3%; viability, T/C [6]: 80.8%; viability, T/C [11]: 84.1%; viability, T/C [12]: 78.5%; viability, T/C [16]: 87.3%; viability, T/C [17]: 83.4%; viability, T/C [18]: 82%; viability, T/C [21]: 73.3%; viability, T/C [22]: 69%; viability, T/C [23]: 85%; viability, T/C [24]: 78.1%; viability, T/C [27]: 66.2%; viability, T/C [28]: 69.2%; viability, T/C [29]: 67.4%; viability, T/C [30]: 69.4%
2 | CC[C@@]1(O)C(=O)OCc2c1cc1n(c2=O)Cc2cc3c(CN(C)C)c(O)ccc3nc2-1 + Cc1ccccc1N=Nc1ccc(NC(=O)c2ccnn2C)c(C)c1 | < 7.00 | < 7.00 | < 7.00 | < 7.00 | < 7.00 | 88.5 | 60.3 |  |  | 77.2 | 66.6 |  |  | 78.9 | 61.2 |  | 61.1 | 51.1 | 57.1 | 60.2 | viability, T/C (second compound 0.1 µM, first compound 0.000316 µM): 94.9%; viability, T/C (second compound 0.1 µM, first compound 0.001 µM): 116%; viability, T/C [31]: 92.2%; viability, T/C [32]: 96.2%; viability, T/C (second compound 0.316 µM, first compound 0.000316 µM): 97.8%; viability, T/C (second compound 0.316 µM, first compound 0.001 µM): 93.6%; viability, T/C [33]: 78.5%; viability, T/C [34]: 93.6%; viability, T/C (second compound 1 µM, first compound 0.000316 µM): 93.9%; viability, T/C (second compound 1 µM, first compound 0.001 µM): 82.2%; viability, T/C [35]: 83.5%; viability, T/C [36]: 82.2%; viability, T/C (second compound 3.16 µM, first compound 0.000316 µM): 84.4%; viability, T/C (second compound 3.16 µM, first compound 0.001 µM): 83.9%; viability, T/C [37]: 86.1%; viability, T/C [38]: 72.6%; viability, T/C (second compound 10 µM, first compound 0.000316 µM): 72.9%; viability, T/C (second compound 10 µM, first compound 0.001 µM): 80.5%; viability, T/C [39]: 78.7%; viability, T/C [40]: 63.9%
3 | COc1cc(C2c3cc4c(cc3C(OC3OC5COC(C)OC5C(O)C3O)C3COC(=O)C23)OCO4)cc(OC)c1O (stereo not given) + Cc1ccccc1N=Nc1ccc(NC(=O)c2ccnn2C)c(C)c1 | < 5.00 | < 5.00 | < 5.00 | < 5.00 | < 5.00 | 94.8 | 103 | 86.2 | 95.2 | 96.2 | 93.5 | 106 | 79.5 | 79.2 | 104 | 99.4 | 85.5 | 94 | 77 | 96.5 | viability, T/C [5]: 91.3%; viability, T/C [6]: 72.1%; viability, T/C [11]: 68.4%; viability, T/C [12]: 59.3%; viability, T/C [16]: 79.8%; viability, T/C [17]: 65.2%; viability, T/C [18]: 62.7%; viability, T/C [21]: 93.5%; viability, T/C [22]: 80.2%; viability, T/C [23]: 74.2%; viability, T/C [24]: 59.6%; viability, T/C [27]: 93.5%; viability, T/C [28]: 73.5%; viability, T/C [29]: 81.4%; viability, T/C [30]: 70.6%
4 | COc1cccc2c1C(=O)c1c(O)c3c(c(O)c1C2=O)CC(O)(C(=O)CO)CC3OC1CC(N)C(O)C(C)O1 (stereo not given) + Cc1ccccc1N=Nc1ccc(NC(=O)c2ccnn2C)c(C)c1 | 6.16 | 6.26 | 6.25 | 6.24 | 6.17 | 92.4 | 90 | 69.9 | 40.7 | 93.5 | 89.7 | 59.3 | 38.2 | 79.1 | 95.6 | 64.9 | 92.5 | 85.9 | 80.8 | 82.3 | viability, T/C [5]: 11.5%; viability, T/C [6]: 0.88%; viability, T/C [11]: 11.3%; viability, T/C [12]: 0.75%; viability, T/C [16]: 32.1%; viability, T/C [17]: 10.6%; viability, T/C [18]: 0.84%; viability, T/C [21]: 67.2%; viability, T/C [22]: 34.2%; viability, T/C [23]: 8.26%; viability, T/C [24]: 0.48%; viability, T/C [27]: 69.9%; viability, T/C [28]: 40.4%; viability, T/C [29]: 5.43%; viability, T/C [30]: 2.16%
5 | Nc1ccn(C2OC(CO)C(O)C2(F)F)c(=O)n1 (stereo not given) + Cc1ccccc1N=Nc1ccc(NC(=O)c2ccnn2C)c(C)c1 | > 7.50 | > 7.50 | > 7.50 | > 7.50 | > 7.50 | 40.4 | 34.1 | 31 | 31.8 | 35.8 | 36.6 | 30.5 | 32 | 37.6 | 33.7 | 34.1 | 30.8 | 38.2 | 39.3 | 36.5 | viability, T/C [5]: 31%; viability, T/C [6]: 28.1%; viability, T/C [11]: 31.9%; viability, T/C [12]: 22.6%; viability, T/C [16]: 31.4%; viability, T/C [17]: 29.5%; viability, T/C [18]: 22.1%; viability, T/C [21]: 31%; viability, T/C [22]: 27.8%; viability, T/C [23]: 24.6%; viability, T/C [24]: 24.5%; viability, T/C [27]: 37.5%; viability, T/C [28]: 37.8%; viability, T/C [29]: 36.9%; viability, T/C [30]: 26.2%
6 | Nc1ncn(C2CC(O)C(CO)O2)c(=O)n1 (stereo not given) + Cc1ccccc1N=Nc1ccc(NC(=O)c2ccnn2C)c(C)c1 | < 6.00 | < 6.00 | < 6.00 | < 6.00 | < 6.00 | 94.8 | 85 | 83.2 | 83.9 | 92.1 | 90.1 | 76.5 | 87 | 88 | 89.7 | 75.4 | 87 | 75 | 86.6 | 72.4 | viability, T/C [31]: 96.5%; viability, T/C [32]: 99.1%; viability, T/C [33]: 97%; viability, T/C [34]: 93.6%; viability, T/C [35]: 86.2%; viability, T/C [36]: 101%; viability, T/C [16]: 92.6%; viability, T/C [37]: 95.2%; viability, T/C [38]: 97.6%; viability, T/C [21]: 79.4%; viability, T/C [22]: 65.5%; viability, T/C [39]: 85.9%; viability, T/C [40]: 90.9%; viability, T/C [27]: 74.2%; viability, T/C [28]: 68.3%
